How the values were obtained:
[1] = test system: CvHAS; details: acceptor (primer) site; UDP-GlcA and Mn2+ present; nanodisc with Nb881 and Nb872; catalytically inactive mutant
[2] = molecular target: T1, XlHAS1 (Xenopus laevis, UniProt P13563); assay: cryo-EM structure, […] Å; format: binding; details: Mg2+; Fab complex in GDN; gating loop inserted; active site
T1 construct: gene has1; full-length, N-terminal 12xHis tag, expressed in Sf9 cells, purified in GDN detergent, monomer
T1 sequence (P13563 1-588): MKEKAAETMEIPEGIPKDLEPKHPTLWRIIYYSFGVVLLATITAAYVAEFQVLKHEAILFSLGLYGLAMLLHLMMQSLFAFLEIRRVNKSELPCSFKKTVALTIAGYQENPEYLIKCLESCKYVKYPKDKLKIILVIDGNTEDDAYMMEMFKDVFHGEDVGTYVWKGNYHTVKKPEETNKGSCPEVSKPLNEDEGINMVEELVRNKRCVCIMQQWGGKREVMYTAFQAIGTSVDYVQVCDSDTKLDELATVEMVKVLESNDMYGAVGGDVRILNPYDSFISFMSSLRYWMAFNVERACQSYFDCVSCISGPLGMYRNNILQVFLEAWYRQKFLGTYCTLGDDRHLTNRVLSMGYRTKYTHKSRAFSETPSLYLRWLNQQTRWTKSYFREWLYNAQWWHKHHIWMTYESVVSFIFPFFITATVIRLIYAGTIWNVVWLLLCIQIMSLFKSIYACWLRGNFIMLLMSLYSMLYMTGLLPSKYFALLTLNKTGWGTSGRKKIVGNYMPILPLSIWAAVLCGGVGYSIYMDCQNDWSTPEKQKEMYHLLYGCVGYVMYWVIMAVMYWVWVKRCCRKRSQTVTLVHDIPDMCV

[3] = molecular target: T2, CvHAS (Paramecium bursaria Chlorella virus CZ-2, UniProt Z9D3Q5ADJ6); assay: cryo-EM structure, […] Å; format: binding; details: formed in situ from UDP-GlcNAc and UDP-GlcA; Mn2+; nanodisc with Nb886 and Nb872; minor UDP-GlcA state not excluded
T2 construct: pET28a-CvHAS, Ni-NTA purified, expressed in E. coli C43; MSP1E3D1 nanodiscs with nanobodies for cryo-EM, IMVs for activity
T2 sequence (Z9D3Q5ADJ6 1-562): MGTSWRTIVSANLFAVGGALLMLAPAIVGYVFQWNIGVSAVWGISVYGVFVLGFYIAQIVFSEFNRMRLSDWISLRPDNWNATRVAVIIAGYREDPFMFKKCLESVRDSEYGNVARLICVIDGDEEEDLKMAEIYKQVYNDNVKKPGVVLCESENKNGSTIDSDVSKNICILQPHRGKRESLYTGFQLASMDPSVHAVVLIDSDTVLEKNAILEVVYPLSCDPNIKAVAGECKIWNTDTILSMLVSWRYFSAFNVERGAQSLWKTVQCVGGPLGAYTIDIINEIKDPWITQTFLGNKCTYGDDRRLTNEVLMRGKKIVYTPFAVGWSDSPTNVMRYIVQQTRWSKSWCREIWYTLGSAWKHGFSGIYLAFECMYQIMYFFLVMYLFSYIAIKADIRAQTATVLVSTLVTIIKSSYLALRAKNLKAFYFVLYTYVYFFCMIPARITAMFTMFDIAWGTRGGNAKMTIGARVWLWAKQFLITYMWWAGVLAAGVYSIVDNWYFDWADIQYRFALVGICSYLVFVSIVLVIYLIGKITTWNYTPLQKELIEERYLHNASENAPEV

[4] = molecular target: T2, CvHAS; assay: cryo-EM structure, […] Å; format: binding; details: formed in situ from GlcNAc and UDP-GlcA; Mn2+; nanodisc with Nb881 and Nb872; also with UDP in 8SNE (3.0 Å)
[5] = molecular target: T3, Xenopus laevis HAS isoform 1 (Xenopus laevis, UniProt P13563); assay: cryo-EM structure; GDN-solubilised XlHAS1 mixed with Fab at a 1:4 molar ratio, overnight at 4 °C, SEC on Superose 6 in 0.01% GDN; apo, HA-bound and UDP-bound samples; details: both partners purified
T3 construct: also called XlHAS1; DG42

Molecule: CC(=O)N[C@H]1C(O)O[C@H](CO)[C@@H](O)[C@@H]1O (some centres unmarked) [GlcNAc]
- cryo-EM structure, 3.2 Å [1]: the GlcNAc primer is well resolved and occupies the same acceptor position

Molecule: O=c1ccn([C@@H]2O[C@H](COP(=O)(O)OP(=O)(O)O)[C@@H](O)[C@H]2O)c(=O)[nH]1 [UDP]
- cryo-EM structure, 3.2 Å [2]: UDP is coordinated by conserved motifs of the GT domain
- cryo-EM structure, 3.0 Å [3]: exposure of WT CvHAS to both of its substrates resulted in a UDP–HA disaccharide-bound conformation

Molecule: CC(=O)N[C@H]1C(O)O[C@H](CO)[C@@H](O)[C@@H]1O[C@@H]1O[C@H](C(=O)O)[C@@H](O)[C@H](O)[C@H]1O (some centres unmarked) [HA disaccharide]
- cryo-EM structure, 3.3 Å [4]: resolves a GlcNAc at the acceptor position that is elongated by a single sugar unit

B1: noninhibitory antibody Fab fragment against XlHAS1 (Fab, V domains shown)
VH: EVQLVESGGGLVQPGGSLRLSCAASGFNVSSYYIHWVRQAPGKGLEWVASISSSSGSTSYADSVKGRFTISADTSKNTAYLQMNSLRAEDTAVYYCARSGYYWGPYFGGFDYWGQGTLVTVSS
VL: DIQMTQSPSSLSASVGDRVTITCRASQSVSSAVAWYQQKPGKAPKLLIYSASSLYSGVPSRFSGSRSGTDFTLTISSLQPEDFATYYCQQSSSSLITFGQGTKVEIK
notes: source: selected from Fab phage library E on XlHAS1 nanodiscs
- binding result [5]: binds

From paper PMC11750622, “Structural insights into translocation and tailored synthesis of hyaluronan” (Nature Structural & Molecular Biology, 2024)
